Earlier results, collected in patent US8889867B2, “Solid forms and process for preparing” (Corcept Therapeutics, Inc., priority 2009, dated 2014).

Assays:
[1] = tested on: patients with Cushing's syndrome
[2] = molecular target: glucocorticoid receptor (GR) (Homo sapiens, UniProt P04150); conditions: Bertagna (1984)
Sequence of glucocorticoid receptor (GR) (P04150 whole entry): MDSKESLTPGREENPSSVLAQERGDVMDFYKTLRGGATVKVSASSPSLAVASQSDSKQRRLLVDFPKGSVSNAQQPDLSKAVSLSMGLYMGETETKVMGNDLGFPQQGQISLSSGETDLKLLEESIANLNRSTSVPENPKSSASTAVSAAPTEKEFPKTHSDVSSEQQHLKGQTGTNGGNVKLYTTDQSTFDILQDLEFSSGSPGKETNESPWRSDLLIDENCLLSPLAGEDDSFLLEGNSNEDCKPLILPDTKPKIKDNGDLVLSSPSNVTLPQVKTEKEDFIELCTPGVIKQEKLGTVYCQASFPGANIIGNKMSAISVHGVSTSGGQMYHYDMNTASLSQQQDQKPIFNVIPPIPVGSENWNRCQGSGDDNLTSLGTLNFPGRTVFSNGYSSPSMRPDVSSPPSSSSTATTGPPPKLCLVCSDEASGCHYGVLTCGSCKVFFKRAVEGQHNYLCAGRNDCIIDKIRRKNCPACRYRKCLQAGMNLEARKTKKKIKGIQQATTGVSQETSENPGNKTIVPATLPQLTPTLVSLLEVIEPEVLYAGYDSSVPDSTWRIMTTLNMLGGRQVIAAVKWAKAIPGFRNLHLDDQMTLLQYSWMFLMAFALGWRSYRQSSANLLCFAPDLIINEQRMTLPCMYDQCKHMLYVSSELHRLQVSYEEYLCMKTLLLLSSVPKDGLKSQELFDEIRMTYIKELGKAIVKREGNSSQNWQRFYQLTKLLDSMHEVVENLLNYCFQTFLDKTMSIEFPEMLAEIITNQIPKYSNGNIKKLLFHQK

CC#C[C@]1(O)CC[C@H]2[C@@H]3CCC4=CC(=O)CCC4=C3[C@@H](c3ccc(N(C)C)cc3)C[C@@]21C [mifepristone]
reversal of acute psychosis ([1]; 400 to 800 mg per day, severe Cushing Syndrome due to adrenal cancers and ectopic ACTH secretion from lung cancer, Van der Lely (1991, 1993)): useful in rapidly reversing acute psychosis
patients' conditions, including psychiatric status ([1]; Cushing's syndrome patients, Chrousos (1989), Sartor (1996)): improved the patients' conditions
anti-glucocorticoid effect in humans [2]: effective anti-glucocorticoid agent
